By IC50 is commonly meant the midpoint of a concentration-inhibition curve. A higher IC50 goes with lower potency.

The values that follow come from patent US20190076406A1, “METHODS AND COMPOSITIONS FOR TREATING CONDITIONS ASSOCIATED WITH ANGIOGENESIS USING A VASCULAR ADHESION PROTEIN-1 (VAP-1) INHIBITOR” (MASSACHUSETTS EYE & EAR INFIRMARY, priority 2007, published 2019).

For assay [1], the system named is laser-induced CNV in Brown-Norway rats. Kind of assay: Laser-induced CNV, fluorescein angiography leakage grading. To be noted: day 7 after laser injury, 0.3 mg/kg daily i.p., n=12. Format: in vivo, rat. As for the experimental part: (§1) Brown-Norway rats were anesthetized with 0.2-0.3 ml of a 50:50 mixture of 100 mg/ml Ketamine and 20 mg/ml Xylazine. Pupils were dilated with 5.0% Phenylephrine and 0.8% Tropicamide. CNV was induced with a 532 nm laser (Oculight GLx, Iridex, Mountain View, Calif.). Six laser spots (150 mW, 100 μm, 100 msec) were placed in each eye using a slit-lamp delivery system and a cover glass as a contact lens. Production of a bubble at the time of laser confirmed the rupture of the Bruch's membrane.
(§2) To block VAP-1, a specific VAP-1 inhibitor, Compound II described above, was used (R-tech Ueno, Ltd., Tokyo, Japan). After laser injury, the inhibitor (0.3 mg/kg BW) was administered to the animals by daily i.p. injections. As a control, some animals received the same regimen for the vehicle solution alone.
Seven days after laser injury, vascular leakage from the CNV lesions was assessed using fluorescein angiography (FA), as described previously (Zambarakji et al. (2001) IOVS 42: 1553-60). Briefly, FA was performed in anesthetized animals from VAP-1 inhibitor- or vehicle-treated groups, using a digital fundus camera (Model TRC 50 IA; Topcon, Paramus, N.J.). Fluorescein injections were performed intraperitoneally (0.2 ml of 2% fluorescein; Akorn, Decatur, Ill.).
The Grade-IIB lesions were defined as clinically significant, as described previously.

The target in a further assay is T1, MAO-B (Homo sapiens, UniProt P27338).
T1 sequence (P27338 1-520): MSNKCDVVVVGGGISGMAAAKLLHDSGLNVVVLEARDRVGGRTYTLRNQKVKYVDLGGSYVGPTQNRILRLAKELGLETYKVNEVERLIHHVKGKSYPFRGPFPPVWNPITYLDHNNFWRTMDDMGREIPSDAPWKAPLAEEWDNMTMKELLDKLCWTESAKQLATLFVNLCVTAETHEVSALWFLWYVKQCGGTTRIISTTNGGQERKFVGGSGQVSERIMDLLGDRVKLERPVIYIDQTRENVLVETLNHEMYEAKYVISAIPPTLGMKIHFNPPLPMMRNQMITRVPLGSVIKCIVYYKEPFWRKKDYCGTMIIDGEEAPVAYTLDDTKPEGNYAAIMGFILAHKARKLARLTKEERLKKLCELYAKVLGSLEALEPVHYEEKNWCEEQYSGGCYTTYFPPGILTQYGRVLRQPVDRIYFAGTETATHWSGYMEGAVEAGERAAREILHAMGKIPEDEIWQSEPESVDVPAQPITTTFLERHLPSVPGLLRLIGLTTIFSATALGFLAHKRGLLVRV
In words: IC50 against MAO-B. Format: biochemical.

Assay [2] deals with laser-induced CNV in Brown-Norway rats. Kind of assay: Macrophage (ED-1 positive cell) infiltration in CNV lesions. Format: in vivo, rat. Conditions: 3 days after laser injury; vs vehicle; n=4, p<0.05. As for the experimental part: as §1, §2
At 1, 3, and 7 days after laser injury and treatment with either VAP-1 inhibitor or vehicle solution, animals were perfused with 200 ml of PBS/kg BW under deep anesthesia. […] The photographs of CNV lesions were taken, and the numbers of ED-1-positive cells were counted. To obtain a quantitative index of macrophage numbers in CNV lesions, an optical density plot of the selected area was generated by a histogram graphing tool in the Photoshop image analysis software (version 6.0; Adobe Systems, Mountain View, Calif.), as described in the literature (for example, Sakurai et al. (2003) IOVS 44: 3578-85). […]

The target in assay [3] is T2, monoamine oxidase (MAO)-A (Homo sapiens, UniProt P21397).
T2 sequence (P21397 1-527): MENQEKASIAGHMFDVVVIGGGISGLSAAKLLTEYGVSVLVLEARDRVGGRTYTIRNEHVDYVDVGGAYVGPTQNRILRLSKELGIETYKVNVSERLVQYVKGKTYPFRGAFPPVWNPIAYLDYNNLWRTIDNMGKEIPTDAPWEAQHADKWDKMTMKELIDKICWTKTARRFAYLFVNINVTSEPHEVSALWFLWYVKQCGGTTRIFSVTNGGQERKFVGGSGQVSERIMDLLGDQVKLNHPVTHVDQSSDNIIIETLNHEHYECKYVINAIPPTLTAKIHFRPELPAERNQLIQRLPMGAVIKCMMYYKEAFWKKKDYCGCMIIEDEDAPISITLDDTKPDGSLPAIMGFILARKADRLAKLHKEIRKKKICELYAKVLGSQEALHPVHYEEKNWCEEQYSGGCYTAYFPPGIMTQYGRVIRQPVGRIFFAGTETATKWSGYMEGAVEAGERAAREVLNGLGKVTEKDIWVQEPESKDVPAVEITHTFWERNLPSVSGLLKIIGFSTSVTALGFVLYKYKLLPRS
Kind of assay: IC50 against MAO-A. Format: biochemical.

In another assay the test system is TNF-α. In words: ELISA of TNF-α in RPE-choroid complex after laser injury. Format: in vivo, rat. Conditions: 3 days after laser injury; 0.3 mg/kg daily i.p.; mean±SEM. As for the experimental part: as §1
To block VAP-1, a specific VAP-1 inhibitor, Compound II described above, was used (R-tech Ueno, Ltd., Tokyo, Japan). […]
The RPE-choroid complex was carefully isolated from eyes 3 days after photocoagulation and placed in 300 μl of lysis buffer supplemented with protease inhibitors and sonicated. The lysate was centrifuged at 15,000 rpm for 15 minutes at 4° C. and the levels of TNF-α, monocyte chemotactic protein (MCP)-1, and intercellular adhesion molecule (ICAM)-1 were determined with rat TNF-α (BD bioscience), MCP-1 (BD bioscience) and ICAM-1 (R&D Systems, Minneapolis, Minn.) enzyme-linked immunosorbent assay (ELISA) kits according to the manufacturers' protocols. Total protein concentration was determined using a Bio-Rad Protein Assay Kit (Bio-Rad Laboratories Hercules, Calif.) and dilutions of bovine serum albumin (Bio-Rad Laboratories) as standards.

On to `CC(=O)Nc1nc(CCc2ccc(NC(=N)NN)cc2)c(Cc2ccc(S(C)(=O)=O)cc2)s1` [Compound II], for which the “incidence of clinically significant CNV lesions graded as IIB” value in assay [1] worked out at 41.8%. Moreover, the concentration for half-maximal inhibition (IC50) (at MAO-B; in assay [3]) was greater than 10 µM in each case. For the same compound, the “reduction of number of accumulated macrophages (ED-1 positive cells) in CNV lesions” value in assay [2] is 41%. The “TNF-α protein level in RPE-choroid complex” value in the assay with TNF-α is 360 ± 12 pg/mg.
